From patent US6482603B1, “Method of detecting drug-receptor and protein-protein interactions” (Yale University, priority 1998, dated 2002)

Key:
[1] = system: control cells which express the Sec-1 G protein gamma fusion alone and cells which express syntaxin alone; assay: growth inhibition assay (halo assay), control cells; assay type: cell-based, Saccharomyces cerevisiae; conditions: upon pheromone addition, filter disks with 5 or 15 μg, 2 days at 30° C.
Protocol: (§1) Standard methods for the growth, maintenance, and transformation of yeast and bacteria, and for the manipulation of DNA, were used throughout (Ausubel et al. 1987, Current Protocols in Molecular Biology. Wiley-Interscience, New York). The Escherichia coli strain DH5α was used for the maintenance of plasmids. Yeast cells were grown in synthetic medium supplemented with amino acids, adenine and 2% glucose (SCD) or 2% galactose plus 0.2% sucrose (SCG); tryptophan and/or uracil were omitted to maintain selection for plasmids. The Saccharomyces cerevisiae strain used in this study was MHY6 (from Jeremy Thomer) (MATa ura3-52 lys2-801^am ade2-101^oc trp1-Δ63 his3-Δ200 leu2-Δ1 ste18Δ::LEU2) (derived from Sikorski et al. (1989) Genetics 122(1):19-27).
(§2) To evaluate to the interactions of the Sec-1 G protein gamma subunit fusion and syntaxin, a growth inhibition assay (halo assay) was carried out by diluting 50 μL from an overnight culture grown at 30° C. in selective media with 2 mL sterile water, followed by the addition of an equal volume of 1% (w/v) dissolved agar (55° C.) and poured onto a culture dish of SCD-Trp-Ura or SCG-Trp-Ura medium. Sterile filter discs were spotted with 5 μg or 15 μg of synthetic α-factor pheromone and placed onto the nascent lawn to induce growth arrest. The resulting zone of growth-arrested cells was documented after 2 days at 30° C. […]

[2] = system: yeast expressing the Sec-1 G protein gamma subunit fusion and syntaxin; assay: growth inhibition assay (halo assay); assay type: cell-based, Saccharomyces cerevisiae; conditions: filter disks containing 5 or 15 μg of α-factor; strain MHY6; documented after 2 days at 30° C.
Protocol: as §1, §2

## α-factor
[1]
  pheromone induced growth arrest: growth arrest
[2]
  α-factor induced growth arrest (zone of inhibition around filter paper disks): no zone of inhibition
